The values that follow come from patent publication US20040097421A1 (priority 2000, published 2004).

Each structure is given as a SMILES string. Counter-ions that a name gives are not always drawn.

The test system of test [1] is U-1568 (non-small cell lung cancer). Description: cells. It is filed as cell-based. Particulars: Homo sapiens, read-out: IC50 (μM), U-1568.
Test [2] has as its system CEM/S (leukemia CCRF-CEM). Description: cells. The format is cell-based. Particulars: Homo sapiens, 72 h, read-out: IC50 (μM), CEM/S.
In test [3] the test system is U1690 (small cell lung cancer). Description: cells. Particulars: Homo sapiens, read-out: IC50 (μM), U1690. The format is cell-based.
Test [4] relates to U-1752 (non-small cell lung cancer). The test is described as follows: cells. It is filed as cell-based. Particulars: Homo sapiens, read-out: IC50 (μM), U-1752.
In test [5] the test system is NCI-H611 (non-small cell lung cancer). Description: cells. It is filed as cell-based. Particulars: Homo sapiens, read-out: IC50 (μM), NCI-H611.
Test [6] deals with 8226S (myeloma RPMI 8226). The test is described as follows: cells. Particulars: Homo sapiens, RPMI-8226, 72 h, read-out: IC50 (μM), 8226S. It is filed as cell-based, human.
Test [7] concerns U-1906E (small cell lung cancer). Description: cells. The format is cell-based. Conditions: Homo sapiens, read-out: IC50 (μM), U-1906E.
In test [8] the test system is NCI-H125 (non-small cell lung cancer). Description: cells. The format is cell-based. Particulars: Homo sapiens, NCI-H125, read-out: IC50 (μM), NCI-H125.
Test [9] has as its system panel of ten human tumour cell lines. The format is cell-based.
Test [10] concerns U1285 (small cell lung cancer). The test is described as follows: cells. Particulars: Homo sapiens, read-out: IC50 (μM), U1285. The format is cell-based.
Test [11] relates to U1906L (small cell lung cancer). The test is described as follows: cells. Particulars: Homo sapiens, read-out: IC50 (μM), U1906L. It is filed as cell-based.
In test [12] the test system is Adenocarcinoma tumor cell system. The test is described as follows: Cytotoxic activity in different tumor models, adenocarcinoma. It is filed as cell-based, human. Conditions: Number 5.
In test [13] the test system is Corpus cancer tumor cell system. Description: Cytotoxic activity in different tumor models, corpus cancer. Particulars: Number 4. It is filed as cell-based, human.
Test [14] concerns fresh human tumour specimens (fourteen hematological, thirteen solid). The test is described as follows: FMCA, IC50 comparison in 27 fresh human tumour specimens. It is filed as cell-based. Particulars: 27 human tumour samples, 82 to 0.131 μM.
Test [15] relates to NSC Lung cancer tumor cell system. Description: Cytotoxic activity in different tumor models, NSC lung cancer. It is filed as cell-based, human. Particulars: Number 8.
In test [16] the test system is 27 PHTC samples from 9 patients with hematological and 18 patients with solid tumours. The test is described as follows: Circumvention of melphalan resistance, FMCA classification of PHTC samples. The format is cell-based, human. Conditions: 4 μM.
Test [17] has as its system solid tumour types, cell lines and primary cultures of human tumour cells from patients. Description: Tumour type specific spectrum of antitumour activity, solid tumour types. Conditions: 4.0 μM. It is filed as cell-based.
The test system of test [18] is hematological tumors, primary cultures of human tumor cells from patients (PHTC). It is filed as cell-based.
Test [19] deals with Breast cancer tumor cell system. The test is described as follows: Cytotoxic activity in different tumor models, breast cancer. The format is cell-based, human. Particulars: Number 4.
The test system of test [20] is Ovarian carcinoma tumor cell system. The test is described as follows: Cytotoxic activity in different tumor models, ovarian carcinoma. The format is cell-based, human. Conditions: Number 8.
The test system of test [21] is U937vcr (vincristine resistance subline). The format is cell-based, human.
In a further test the test system is RPMI 8322 melanoma cells. Conditions: cited from earlier work.
Test [22] concerns Prostate cancer tumor cell system. Description: Cytotoxic activity in different tumor models, prostate cancer. It is filed as cell-based, human. Conditions: Number 1.

On to `CC[C@@]1(O)C(=O)OCc2c1cc1n(c2=O)Cc2cc3c(CN(C)C)c(O)ccc3nc2-1` [Topotecan, topotecan], for which the IC50 in test [1] is 115 µM; in test [2] it was 0.02 µM; in test [3], 0.92 µM; in test [4], 28 µM; in test [5] it was at least 236 µM; in test [6], 0.87 µM. Also, the IC50 is 0.08 µM in test [7], at least 236 µM in test [8], 0.17 µM in [10] and 0.12 µM in test [11]. Further, the “IC50 (μM), MEAN” value in [9] came out at 20.0 µM.
In the case of `CCOC(=O)[C@H](Cc1ccc(F)cc1)NC(=O)[C@H](Cc1cccc(N(CCCl)CCCl)c1)NC(=O)[C@@H]1CCCN1` [Example P2, L-prolyl-m-L-sarcolysyl-p-L-fluorophenylalanine ethyl ester hydrochloride], the “Median response at 4.0 μM >50% reduction in tumor cell survival” value in [12], in [13], in test [15], in test [19], in test [20] and in test [22] was “No” each time. In addition, in [14], the “Comparison of IC50s (FIG. 2)” value is on record as “more active than melphalan”. For the same compound, the “Number of samples classified EDR (extreme drug resistance)” value in test [16] is 1. Besides, the “Number of samples classified IDR (intermediate drug resistance)” value in [16] came to 4. Moreover, the “Samples classified EDR (%)” value in [16] is listed as 5%. In addition, in test [17], the “Activity in the listed diagnoses of Table 5” value is “inactive”. Also, the “Tumor cell survival index (%), Hematological tumors n = 7-11” value in test [18] turned out to be 7%. The compound also had an IC50 in [21] of 1.77 µM. Besides, the “Toxicity to RPMI 8322 melanoma cells compared with the other PTC peptides” value in the test with RPMI 8322 melanoma cells is recorded as “more toxic”.
